Reference: patent publication US12252701B2, “Chimeric antigen receptor T cell therapy” (KITE PHARMA, INC., priority 2020, dated 2025)

Experiments:
[1] = test system: phospho-STAT panel (pSTAT3/4/5), CD3+ T cells; test: phospho-STAT induction by IL-6, MesoScale Discovery phospho-STAT panel; type: cell-based, human; details: for pSTAT3 / pSTAT4 / pSTAT5: CD3+ T cells
Experimental: CD19 CAR-T, PBMC or CD3+ T cells (AllCells) were thawed and rested 0/N at 37° C. in R10 media. Cells were seeded at 700,000 cells/well and were either untreated or treated with 100 ng/ml IL6+drug at indicated concentrations for 20 minutes at 37° C. The cells were then washed with cold PBS and followed by 60 μl of Tris lysis buffer (provided by MSD) for 30 minutes on ice. Lysates were collected by spin down for 10 minutes at >10,000 rpm. 25 μl/well per condition was used for MesoScale Discovery (MSD) assay using the phospho-STAT panel (pSTAT3/4/5) from MesoScale Discovery following the manufacturer's protocol. pSTAT panel plates were blocked with 150 μl of blocker A solution for 1 hr at RT with shaking. Plates were washed three times with 1× Tris wash buffer. 25 μl of lysate samples were added per well, incubated 2 hr at room temperature or at 4° C. overnight. Plates were washed 3 times with 1× tris wash buffer and then 25 μl of detection antibody solution were added to each well and incubated for 1 hr at room temperature with shaking. Plates were washed and 1× read buffer added to each well and plates were read on the MSD instrument.

Nalm-6 luc = test: CAR-T cell killing assay (luciferase viability of tumor cells)
[2] = lower dose titration, IL-6 + drug 3.125 nM, MSD signal (No stim. 123, IL-6 alone 5767)
[3] = lower dose titration, IL-6 + drug 3.125 nM, MSD signal (No stim. 281, IL-6 alone 3624)
[4] = lower dose titration, IL-6 + drug 3.125 nM, MSD signal (No stim. 324, IL-6 alone 2352)
[5] = lower dose titration, IL-6 + drug 6.25 nM, MSD signal (No stim. 123, IL-6 alone 5767)
[6] = lower dose titration, IL-6 + drug 6.25 nM, MSD signal (No stim. 281, IL-6 alone 3624)
[7] = lower dose titration, IL-6 + drug 6.25 nM, MSD signal (No stim. 324, IL-6 alone 2352)
[8] = lower dose titration, IL-6 + drug 12.5 nM, MSD signal (No stim. 123, IL-6 alone 5767)
[9] = lower dose titration, IL-6 + drug 12.5 nM, MSD signal (No stim. 281, IL-6 alone 3624)
[10] = lower dose titration, IL-6 + drug 12.5 nM, MSD signal (No stim. 324, IL-6 alone 2352)
[11] = lower dose titration, IL-6 + drug 25 nM, MSD signal (No stim. 123, IL-6 alone 5767)
[12] = lower dose titration, IL-6 + drug 25 nM, MSD signal (No stim. 281, IL-6 alone 3624)
[13] = lower dose titration, IL-6 + drug 25 nM, MSD signal (No stim. 324, IL-6 alone 2352)
[14] = lower dose titration, IL-6 + drug 50 nM, MSD signal (No stim. 123, IL-6 alone 5767)
[15] = lower dose titration, IL-6 + drug 50 nM, MSD signal (No stim. 281, IL-6 alone 3624)
[16] = lower dose titration, IL-6 + drug 50 nM, MSD signal (No stim. 324, IL-6 alone 2352)
[17] = lower dose titration, IL-6 + drug 100 nM, MSD signal (No stim. 123, IL-6 alone 5767)
[18] = lower dose titration, IL-6 + drug 100 nM, MSD signal (No stim. 281, IL-6 alone 3624)
[19] = lower dose titration, IL-6 + drug 100 nM, MSD signal (No stim. 324, IL-6 alone 2352)
[20] = 100 ng/ml IL-6 + drug 10 uM, 20 min, MSD signal (No stim. 689, IL-6 alone 33641)
[21] = 100 ng/ml IL-6 + drug 10 uM, 20 min, MSD signal (No stim. 1964, IL-6 alone 15405)
[22] = 100 ng/ml IL-6 + drug 10 uM, 20 min, MSD signal (No stim. 9210, IL-6 alone 17743)
[23] = IL-6 + drug 0.125 uM, MSD signal (No stim. 689, IL-6 alone 33641)
[24] = IL-6 + drug 0.125 uM, MSD signal (No stim. 1964, IL-6 alone 15405)
[25] = IL-6 + drug 0.125 uM, MSD signal (No stim. 9210, IL-6 alone 17743)
[26] = IL-6 + drug 0.5 uM, MSD signal (No stim. 689, IL-6 alone 33641)
[27] = IL-6 + drug 0.5 uM, MSD signal (No stim. 1964, IL-6 alone 15405)
[28] = IL-6 + drug 0.5 uM, MSD signal (No stim. 9210, IL-6 alone 17743)
[29] = IL-6 + drug 1 uM, MSD signal (No stim. 689, IL-6 alone 33641)
[30] = IL-6 + drug 1 uM, MSD signal (No stim. 1964, IL-6 alone 15405)
[31] = IL-6 + drug 1 uM, MSD signal (No stim. 9210, IL-6 alone 17743)
[32] = IL-6 + drug 5 uM, MSD signal (No stim. 689, IL-6 alone 33641)
[33] = IL-6 + drug 5 uM, MSD signal (No stim. 1964, IL-6 alone 15405)
[34] = IL-6 + drug 5 uM, MSD signal (No stim. 9210, IL-6 alone 17743)

`CCS(=O)(=O)N1CC(CC#N)(n2cc(-c3ncnc4[nH]ccc34)cn2)C1` [baricitinib] was tested, and the pSTAT3 [1, 2] was 5208, the pSTAT4 [1, 3] was 2961 and the pSTAT5 [1, 4] was 1408. It also gave a pSTAT3 [1, 5] of 2798, a pSTAT4 [1, 6] of 2801 and a pSTAT5 [1, 7] of 1243. It also gave a pSTAT3 [1, 8] of 2528, a pSTAT4 [1, 9] of 1741 and a pSTAT5 [1, 10] of 827. The pSTAT3 [1, 11] was 1441, the pSTAT4 [1, 12] was 1359 and the pSTAT5 [1, 13] was 710. For the same compound, the pSTAT3 [1, 14] was 702, the pSTAT4 [1, 15] was 1059 and the pSTAT5 [1, 16] was 586. For the same compound, the pSTAT3 [1, 17] was 288, the pSTAT4 [1, 18] was 690 and the pSTAT5 [1, 19] was 471. The “Mean tumor cell death (%)” value (Nalm-6 luc; E:T ratio 1:1, dose 10 nM) was 97.9%, the “Mean tumor cell death (%)” value (Nalm-6 luc; E:T ratio 1:1, dose 20 nM) was 97.5% and the “Mean tumor cell death (%)” value (Nalm-6 luc; E:T ratio 1:1, dose 40 nM) was 85.7%. For the same compound, the “Mean tumor cell death (%)” value (Nalm-6 luc; E:T ratio 1:1, dose 60 nM) was 96.2%, the “Mean tumor cell death (%)” value (Nalm-6 luc; E:T ratio 1:1, dose 80 nM) was 96% and the “Mean tumor cell death (%)” value (Nalm-6 luc; E:T ratio 1:1, dose 100 nM) was 93.1%. For the same compound, the “Mean tumor cell death (%)” value (Nalm-6 luc; E:T ratio 1:3, dose 10 nM) was 65.6%, the “Mean tumor cell death (%)” value (Nalm-6 luc; E:T ratio 1:3, dose 20 nM) was 65% and the “Mean tumor cell death (%)” value (Nalm-6 luc; E:T ratio 1:3, dose 40 nM) was 67.4%. The “Mean tumor cell death (%)” value (Nalm-6 luc; E:T ratio 1:3, dose 60 nM) was 59%, the “Mean tumor cell death (%)” value (Nalm-6 luc; E:T ratio 1:3, dose 80 nM) was 55% and the “Mean tumor cell death (%)” value (Nalm-6 luc; E:T ratio 1:3, dose 100 nM) was 31.1%. For the same compound, the “Mean tumor cell death (%)” value (Nalm-6 luc; E:T ratio 1:9, dose 10 nM) was 25.4%, the “Mean tumor cell death (%)” value (Nalm-6 luc; E:T ratio 1:9, dose 20 nM) was 27.6% and the “Mean tumor cell death (%)” value (Nalm-6 luc; E:T ratio 1:9, dose 40 nM) was 26.1%. For the same compound, the “Mean tumor cell death (%)” value (Nalm-6 luc; E:T ratio 1:9, dose 60 nM) was 21.1%, the “Mean tumor cell death (%)” value (Nalm-6 luc; E:T ratio 1:9, dose 80 nM) was 3.97% and the “Mean tumor cell death (%)” value (Nalm-6 luc; E:T ratio 1:9, dose 100 nM) was 5.5%.
Compound `C[C@@H]1C[C@H]2[C@@H]3CCC4=CC(=O)C=C[C@]4(C)[C@@]3(F)[C@@H](O)C[C@]2(C)[C@@]1(O)C(=O)CO` [dexamethasone] has a pSTAT3 [1, 20] of 25688, a pSTAT4 [1, 21] of 11588 and a pSTAT5 [1, 22] of 14850. The pSTAT3 [1, 23] was 26776, the pSTAT4 [1, 24] was 14052 and the pSTAT5 [1, 25] was 16019. For the same compound, the pSTAT3 [1, 26] was 28004, the pSTAT4 [1, 27] was 15286 and the pSTAT5 [1, 28] was 18936. The pSTAT3 [1, 29] was 27312, the pSTAT4 [1, 30] was 15357 and the pSTAT5 [1, 31] was 18209. It also gave a pSTAT3 [1, 32] of 24869, a pSTAT4 [1, 33] of 11925 and a pSTAT5 [1, 34] of 15761. The “Mean tumor cell death (%)” value (Nalm-6 luc; E:T ratio 1:1, dose 10 nM) was 98.09%, the “Mean tumor cell death (%)” value (Nalm-6 luc; E:T ratio 1:1, dose 100 nM) was 92.30% and the “Mean tumor cell death (%)” value (Nalm-6 luc; E:T ratio 1:1, dose 250 nM) was 97.15%. The “Mean tumor cell death (%)” value (Nalm-6 luc; E:T ratio 1:3, dose 10 nM) was 34.66%, the “Mean tumor cell death (%)” value (Nalm-6 luc; E:T ratio 1:3, dose 100 nM) was 19.94% and the “Mean tumor cell death (%)” value (Nalm-6 luc; E:T ratio 1:3, dose 250 nM) was 20.38%. For the same compound, the “Mean tumor cell death (%)” value (Nalm-6 luc; E:T ratio 1:9, dose 10 nM) was 7.08%, the “Mean tumor cell death (%)” value (Nalm-6 luc; E:T ratio 1:9, dose 100 nM) was 3.02% and the “Mean tumor cell death (%)” value (Nalm-6 luc; E:T ratio 1:9, dose 250 nM) was 2.48%.
For `C[C@@H]1CCN(C(=O)CC#N)C[C@@H]1N(C)c1ncnc2[nH]ccc12` [tofacitinib], the pSTAT3 [1, 20] was 2238, the pSTAT4 [1, 21] was 2159 and the pSTAT5 [1, 22] was 1431. It also gave a pSTAT3 [1, 23] of 7733, a pSTAT4 [1, 24] of 3698 and a pSTAT5 [1, 25] of 2424. The pSTAT3 [1, 26] was 3382, the pSTAT4 [1, 27] was 2503 and the pSTAT5 [1, 28] was 1756. It also gave a pSTAT3 [1, 29] of 2301, a pSTAT4 [1, 30] of 2259 and a pSTAT5 [1, 31] of 1528. It also gave a pSTAT3 [1, 32] of 2165, a pSTAT4 [1, 33] of 2033 and a pSTAT5 [1, 34] of 1421. For the same compound, the “effect on phosphorylated-STAT-1, STAT-3 and STAT-5 levels” value ([1]; IL-6 stimulation 100 ng/ml, 20 minutes, 10 μM to 0.125 μM) was “reduction of phosphorylated-STAT-1, STAT-3 and STAT-5 levels in a dose-responsive manner”, the pSTAT3 [1, 2] was 5917 and the pSTAT4 [1, 3] was 3525. It also gave a pSTAT5 [1, 4] of 1810, a pSTAT3 [1, 5] of 4586 and a pSTAT4 [1, 6] of 3455. The pSTAT5 [1, 7] was 1808, the pSTAT3 [1, 8] was 3998 and the pSTAT4 [1, 9] was 2304. The pSTAT5 [1, 10] was 1187, the pSTAT3 [1, 11] was 3115 and the pSTAT4 [1, 12] was 1982. It also gave a pSTAT5 [1, 13] of 914, a pSTAT3 [1, 14] of 2148 and a pSTAT4 [1, 15] of 1499. For the same compound, the pSTAT5 [1, 16] was 703, the pSTAT3 [1, 17] was 1006 and the pSTAT4 [1, 18] was 918. The pSTAT5 [1, 19] was 513, the “Mean tumor cell death (%)” value (Nalm-6 luc; E:T ratio 1:1, dose 10 nM) was 98.6% and the “Mean tumor cell death (%)” value (Nalm-6 luc; E:T ratio 1:1, dose 20 nM) was 98.4%. The “Mean tumor cell death (%)” value (Nalm-6 luc; E:T ratio 1:1, dose 40 nM) was 96.1%, the “Mean tumor cell death (%)” value (Nalm-6 luc; E:T ratio 1:1, dose 60 nM) was 97.9% and the “Mean tumor cell death (%)” value (Nalm-6 luc; E:T ratio 1:1, dose 80 nM) was 98%. The “Mean tumor cell death (%)” value (Nalm-6 luc; E:T ratio 1:1, dose 100 nM) was 97.2%, the “Mean tumor cell death (%)” value (Nalm-6 luc; E:T ratio 1:3, dose 10 nM) was 83.2% and the “Mean tumor cell death (%)” value (Nalm-6 luc; E:T ratio 1:3, dose 20 nM) was 87.3%. The “Mean tumor cell death (%)” value (Nalm-6 luc; E:T ratio 1:3, dose 40 nM) was 85.5%, the “Mean tumor cell death (%)” value (Nalm-6 luc; E:T ratio 1:3, dose 60 nM) was 75.7% and the “Mean tumor cell death (%)” value (Nalm-6 luc; E:T ratio 1:3, dose 80 nM) was 66.6%. For the same compound, the “Mean tumor cell death (%)” value (Nalm-6 luc; E:T ratio 1:3, dose 100 nM) was 46.8%, the “Mean tumor cell death (%)” value (Nalm-6 luc; E:T ratio 1:9, dose 10 nM) was 37% and the “Mean tumor cell death (%)” value (Nalm-6 luc; E:T ratio 1:9, dose 20 nM) was 28.9%. For the same compound, the “Mean tumor cell death (%)” value (Nalm-6 luc; E:T ratio 1:9, dose 40 nM) was 36%, the “Mean tumor cell death (%)” value (Nalm-6 luc; E:T ratio 1:9, dose 60 nM) was 40.5% and the “Mean tumor cell death (%)” value (Nalm-6 luc; E:T ratio 1:9, dose 80 nM) was 28.2%. The “Mean tumor cell death (%)” value (Nalm-6 luc; E:T ratio 1:9, dose 100 nM) was 25.6%.
